Test results from patent US20160287726A1, “CATIONIC CONTRAST AGENTS AND METHODS OF USING THE SAME” (The Trustees of the University of Pennsylvania, priority 2015, published 2016).

Columns and labels:
[1] = Demetallation assay in 1M HCl; type: physicochemical; conditions: 2.5 mM, 37° C.
Procedure: Since transmetallation was not observed in serum supplemented with ZnCl2, the stability of the various Gd complexes were further evaluated by monitoring demetallation in a highly acidic, non-physiologic solution (1M HCl). Even under these harsh conditions, Gd remained complexed with Compound 6 for at least 24 hours (FIG. 3B). […] Since a measurement of the T1 relaxation time could not be acquired at t=0 for this assay, the relaxation ratio could not be calculated. Instead, demetallation was monitored strictly by changes in the T1 relaxation time. In instances of demetallation, the T1 relaxation time moved towards that of free Gd.
Demetallation Assay A 300 μL solution of 2.5 mM Gd-compound was incubated at 37° C. in 1M HCl and the longitudinal relaxation times were acquired at appropriate time points. The relaxation time was then plotted against time.

[2] = Transmetallation assay with ZnCl2 in fetal bovine serum; type: physicochemical; conditions: 2.5 mM complex, 2.5 mM ZnCl2, fetal bovine serum, pH 7.4, 37° C., over 72 hours
Procedure: To directly compare the stability of Complex A to Gd-DTPA (Magnevist®) and Gd-DOTA (also known as gadoteric acid), a transmetallation assay using equimolar concentrations of ZnCl2 was performed in fetal bovine serum. Transmetallation was monitored as a function of time by calculating the relaxation ratio, R1(t)/R1(0), where R1(t) is the longitudinal Relaxivity at time t and R1(0) is the longitudinal Relaxivity in the absence of ZnCl2 (i.e. time 0).
Transmetallation of Gd^3+ ion by Zinc^2+ ion was performed in fetal bovine serum. The solution contained 4 mL of 2.5 mM Gd-complex and 2.5 mM ZnCl2 at pH 7.4. The mixture was stirred at 37° C. throughout the experiment while 300 μL aliquot was taken up at the appropriate time for measurement of the longitudinal relaxation time. The water proton relaxation times were measured using a Bruker mq60 tabletop MR relaxometer operating at 1.41T. Ratio of reverse relaxation time at each time point (R1(t)) and relaxation time at time zero (R1(0)) was plotted against time.

[3] = tested on: GAG-rich cartilage (articular cartilage microparticles from juvenile bovine femurs); experiment: Electrostatic interaction with cartilage microparticles (T1 of supernatant); type: binding; conditions: normalized to average T1 of respective control
Procedure: To assess whether Gd-DOTA-Am4 interacts electrostatically with GAG-rich cartilage, articular cartilage from juvenile bovine femurs was ground into microparticles. These microparticles were then mixed and incubated with Gd-DOTA, Gd-DTPA, or Gd-DOTA-Am4. The microparticles were then pelleted and the T1 relaxation time of the supernatant was measured. Measurements were compared to analogous control Gd complexes that were not incubated with cartilage microparticles (FIG. 5). All samples were normalized to the average T1 relaxation time of their respective control.

[4] = tested on: bovine meniscal fibrochondrocytes (MFCs); experiment: Cell-based safety assay on meniscal fibrochondrocyte monolayers; conditions: over 24 hours, basal media, compared with Saline
Procedure: (§1) The safety profile of Gd-DOTA-Am4 was assessed via both cell- and tissue-based assays. […] Similarly, after intra-articular injection of Saline, Gd-DTPA, or Gd-DOTA-Am4 into the joint space of an intact bovine femorotibial explant, the area fractions of live and dead cells in the cartilage and meniscus were equivalent after 3 hours (p>0.05) (FIG. 9).

[5] = Relaxivity measurements (longitudinal relaxivity r1); type: physicochemical; conditions: Bruker mq60 MR relaxometer, 1.41 T (60 MHz), saline pH 7.4
Procedure: Compound2 was prepared by bromination of methyl acrylate using bromine in chloroform at room temperature, while compound 3 was prepared by slow addition of diethylamine into compound 2 in ether at 0° C. The methyl and ethyl protecting groups were efficiently removed with a methanol:NaOH (0.5 M) solvent cocktail (40:60) for 48 h. The solution was neutralized with a 2 M HCl solution and dried. The residue was redissolved in pure methanol, and the precipitate that formed was filtered and the solvent dried in vacuuo to yield compound 6. […] In comparison, the longitudinal relaxivity of Magnevist® was measured to be 3.9 mM^−1s^−1 (FIG. 2B).
Longitudinal relaxation times (T1) were measured in saline at pH 7.4 using a Bruker mq60 tabletop MR relaxometer operating at 1.41 T. The longitudinal relaxivity (r1) of the complex was calculated by plotting the reciprocal of the T1 relaxation time versus the gadolinium concentration.

[6] = tested on: adult bovine menisci explants with defect; experiment: Contrast-enhanced T1-weighted MR imaging of meniscus explants with defect; conditions: 2 mM, pH 7.4, ~30 min bath; for qualitative contrast / signal intensity within soft tissue defect: T1-weighted images, 4.7 T
Procedure: To evaluate the efficacy of Complex A in highlighting soft tissue tears in comparison to Gd-DTPA, explants (8 mm in diameter) were obtained from adult bovine menisci. Well-defined defects were then introduced by using a punch to create a 4 mm internal core, which was left in place. Tissue explant blocks (n=9; 3 per group) were placed in a 48-well microplate and bathed in 2 mM Gd-DTPA, Complex A, or Saline (pH 7.4) for ˜30 min. The pH and concentration of Gd^+3 was kept constant throughout the experiment. T1-weighted images were then acquired in the axial plane (FIGS. 6A and 7). […] In the saline samples, the defects were extremely difficult to identify. To acquire a more quantitative comparison between the three groups, regions of interest (ROI) were drawn around the lateral defects and, following background subtraction (FIGS. 6B-D), the total signal intensity (area under curve) within the ROI was quantified and normalized to the length of the tear (FIG. 6E). The Wilcoxon signed-rank test was then used to compare contrast enhancement for the various contrast agents.
Adult bovine stifle joints were purchased from a commercial vendor (Animal Technologies, Tyler, Tex.), dissected in a sterile field, and the menisci removed. Biopsy punches (Miltex, York, Pa.) were used to produce 8 mm diameter full thickness samples in the axial plane. Well-defined defects were then introduced by using a 4 mm punch to create an internal core, which was left in place. […]
A region of interest (ROI) was determined for each MR image slice (n=6 per contrast agent, i.e. 2 slices per sample). […] The ROI height was determined for each slice individually, such that it could span the sample from top to bottom and exclude media and unrelated bright areas within the cartilage (e.g., cavities near the liquid-cartilage interface). […]
ROIs were partitioned into one-pixel tall lines spanning the entire width. […] All of the integrations in an ROI were then averaged to quantify that ROI's average signal intensity. […]

[7] = tested on: cartilage and meniscus of an intact bovine femorotibial explant; experiment: Tissue-based safety assay, intra-articular injection into femorotibial explant; conditions: after 3 hours, compared with Saline, p>0.05
Procedure: as §1

| time Gd remained complexed (demetallation) ([1]; monitored by T1 relaxation time) | Compound | transmetallation (relaxation ratio R1(t)/R1(0)) [2] | T1 relaxation time of supernatant after incubation with cartilage microparticles vs control without microparticles [3] | demetallation (T1 relaxation time) [1] | cell morphology, viability, and proliferation [4] | longitudinal relaxivity [5] [mM⁻¹ s⁻¹] | qualitative contrast / signal intensity within soft tissue defect [6] | qualitative contrast / signal intensity within soft tissue defect ([6]; listed as Magnevist®) | total signal intensity within ROI normalized to length of tear (contrast enhancement) ([6]; statistical comparison between groups) | area fractions of live and dead cells in the cartilage and meniscus [7] |
| --- | --- | --- | --- | --- | --- | --- | --- | --- | --- | --- |
| at least 24 hours | NCC(C(=O)O)N1CCN(C(CN)C(=O)O)CCN(C(CN)C(=O)O)CCN(C(CN)C(=O)O)CC1 (stereo not drawn) [Compound 6, 1,4,7,10-tetraazacyclododecane-N,N′,N″,N′″-(α-(aminomethyl))-tetraacetic acid] | – | – | – | – | – | – | – | – | – |
| – | O=C([O-])CN1CCN(CC(=O)[O-])CCN(CC(=O)O)CCN(CC(=O)[O-])CC1.[Gd+3] [Gd-DOTA, 1,4,7,10-tetraazacyclododecane-1,4,7,10-tetraacetic acid (DOTA) gadolinium complex] | No transmetallation was detected | no change in the relaxation time | rapid demetallation | – | – | – | – | – | – |
| – | O=C([O-])CN(CCN(CC(=O)[O-])CC(=O)O)CCN(CC(=O)[O-])CC(=O)O.[Gd+3] [Gd-DTPA, Diethylenetriaminepentaacetic acid (DTPA) gadolinium complex] | rapidly increased | no change in the relaxation time | rapid demetallation | qualitatively similar between groups | 3.9 | much less contrast was observed within the defect at greater depths | less contrast was observed within the defect at greater depths | statistically significant improvement in contrast compared to saline | equivalent |
